Measurements taken from patent US6809065B2, “Herbicide containing substituted pyrazole derivative as active ingredient” (SDS Biotech K.K., priority 2001, dated 2004).

Columns and labels:
Scirpus juncoides = assay: Paddy field treatment (Test Example 3); type: in vivo; conditions: paddy pot, submerged 4 cm, dropped on water surface 10th day after transplantation, 1 kg active ingredient per hectare, evaluated 21st day
How it was run: (§1)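 Weeds sown in puddled paddy soil under 4 cm water, with two-leaf Koshihikari rice transplanted at 3 cm depth. On day 10 after transplanting, wettable powder applied to the water surface at 1 kg active ingredient per hectare. Herbicidal effect and crop safety scored on an index 21 days later.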

Monochoria vaginalis = assay: Paddy field treatment (Test Example 3); type: in vivo; conditions: paddy pot, submerged 4 cm, dropped on water surface 10th day after transplantation, 1 kg active ingredient per hectare, evaluated 21st day
How it was run: as §1

Ammannia multiflora = assay: Paddy field treatment (Test Example 3); type: in vivo; conditions: paddy pot, submerged 4 cm, dropped on water surface 10th day after transplantation, 1 kg active ingredient per hectare, evaluated 21st day
How it was run: as §1

[1] = system: rice (Oryza sative, variety: Koshihikari); assay: Paddy field treatment (Test Example 3), crop; type: in vivo, Oryza sativa; conditions: transplanted rice two-leaf period, water surface treatment 10th day after transplantation, 1 kg active ingredient per hectare, evaluated 21st day, lower index = higher safety
How it was run: as §1

Chenopodium album [2] = assay: Upland field foliage treatment (Test Example 1); type: in vivo; conditions: foliage treatment 14th day after sowing, wettable powder, 1 kg active ingredient per hectare, evaluated 21st day after application
How it was run: (§2)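 Weeds and crops were sown in upland soil under about 1 cm cover, and a wettable powder diluted in water was sprayed on the foliage 14 days after sowing at 1 kg active ingredient per hectare. Scoring was done 21 days after application on an index scale, where higher weed scores mean stronger herbicidal effect and lower crop scores mean greater crop safety.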

Stellaria media [3] = assay: Upland field foliage treatment (Test Example 1); type: in vivo; conditions: foliage treatment 14th day after sowing, wettable powder, 1 kg active ingredient per hectare, evaluated 21st day after application
How it was run: as §2

Digitaria adscendens [4] = assay: Upland field foliage treatment (Test Example 1); type: in vivo; conditions: foliage treatment 14th day after sowing, wettable powder, 1 kg active ingredient per hectare, evaluated 21st day after application
How it was run: as §2

Setaria viridis [5] = assay: Upland field foliage treatment (Test Example 1); type: in vivo; conditions: foliage treatment 14th day after sowing, wettable powder, 1 kg active ingredient per hectare, evaluated 21st day after application
How it was run: as §2

Echinochloa spp. = assay: Paddy field treatment (Test Example 3); type: in vivo, Echinochloa crusgalli; conditions: paddy pot, submerged 4 cm, dropped on water surface 10th day after transplantation, 1 kg active ingredient per hectare, evaluated 21st day
How it was run: as §1

soybean (Glycine max) [6] = assay: Upland soil treatment (Test Example 2), crop; type: in vivo; conditions: soil surface treatment next day after sowing, 1 kg active ingredient per hectare, evaluated 21st day, lower index = higher safety
How it was run: (§3)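 Pre-emergence soil treatment: day after sowing, WP formulation diluted in water, applied uniformly to soil surface at 1 kg a.i./ha. Seeds sown ~1 cm deep in upland soil. Visual index read 21 d after application (weeds: high = effective; crop: low = safe).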

[7] = system: wheat (Triticum aestivum); assay: Upland soil treatment (Test Example 2), crop; type: in vivo; conditions: soil surface treatment next day after sowing, 1 kg active ingredient per hectare, evaluated 21st day, lower index = higher safety
How it was run: as §3

soybean (Glycine max) [8] = assay: Upland field foliage treatment (Test Example 1), crop; type: in vivo; conditions: foliage treatment 14th day after sowing, 1 kg active ingredient per hectare, evaluated 21st day, lower index = higher safety
How it was run: as §2

[9] = system: wheat (Triticum aestivum); assay: as above; type: in vivo; conditions: foliage treatment 14th day after sowing, 1 kg active ingredient per hectare, evaluated 21st day, lower index = higher safety
How it was run: as §2

Chenopodium album [10] = assay: Upland soil treatment (Test Example 2); type: in vivo; conditions: soil surface treatment next day after sowing, wettable powder, 1 kg active ingredient per hectare, evaluated 21st day after application
How it was run: as §3

Stellaria media [11] = assay: Upland soil treatment (Test Example 2); type: in vivo; conditions: soil surface treatment next day after sowing, wettable powder, 1 kg active ingredient per hectare, evaluated 21st day after application
How it was run: as §3

Digitaria adscendens [12] = assay: Upland soil treatment (Test Example 2); type: in vivo; conditions: soil surface treatment next day after sowing, wettable powder, 1 kg active ingredient per hectare, evaluated 21st day after application
How it was run: as §3

Setaria viridis [13] = assay: Upland soil treatment (Test Example 2); type: in vivo; conditions: soil surface treatment next day after sowing, wettable powder, 1 kg active ingredient per hectare, evaluated 21st day after application
How it was run: as §3

Compound	Herbicidal activity Scirpus juncoides (Scirpus juncoides)	Herbicidal activity Monochoria vaginalis (Monochoria vaginalis)	Herbicidal activity Ammannia multiflora (Ammannia multiflora)	Herbicidal activity Oryza sativa [1]	Herbicidal activity Chenopodium album (Chenopodium album [2])	Herbicidal activity Stellaria media (Stellaria media [3])	Herbicidal activity Digitaria adscendens (Digitaria adscendens [4])	Herbicidal activity Setaria viridis (Setaria viridis [5])	Herbicidal activity Echinochloa spp. (Echinochloa spp.)	Herbicidal activity Glycine max (soybean (Glycine max) [6])	Herbicidal activity Triticum aestivum [7]	Herbicidal activity Glycine max (soybean (Glycine max) [8])	Herbicidal activity Triticum aestivum [9]	Herbicidal activity Chenopodium album (Chenopodium album [10])	Herbicidal activity Stellaria media (Stellaria media [11])	Herbicidal activity Digitaria adscendens (Digitaria adscendens [12])	Herbicidal activity Setaria viridis (Setaria viridis [13])
COC=C(Cn1nc(-c2cc(Cl)cc(Cl)c2)cc1C)C(=O)OC [Compound 11]	3 (herbicidal effect of not less than 50% by weight and less than 70% by weight)	3 (herbicidal effect of not less than 50% by weight and less than 70% by weight)	3 (herbicidal effect of not less than 50% by weight and less than 70% by weight)	0 (herbicidal effect of not less than 0% by weight and less than 10% by weight)	4 (herbicidal effect of not less than 70% by weight and less than 90% by weight)	4 (herbicidal effect of not less than 70% by weight and less than 90% by weight)	4 (herbicidal effect of not less than 70% by weight and less than 90% by weight)	4 (herbicidal effect of not less than 70% by weight and less than 90% by weight)	3 (herbicidal effect of not less than 50% by weight and less than 70% by weight)	0 (herbicidal effect of not less than 0% by weight and less than 10% by weight)	0 (herbicidal effect of not less than 0% by weight and less than 10% by weight)	0 (herbicidal effect of not less than 0% by weight and less than 10% by weight)	0 (herbicidal effect of not less than 0% by weight and less than 10% by weight)	4 (herbicidal effect of not less than 70% by weight and less than 90% by weight)	4 (herbicidal effect of not less than 70% by weight and less than 90% by weight)	4 (herbicidal effect of not less than 70% by weight and less than 90% by weight)	4 (herbicidal effect of not less than 70% by weight and less than 90% by weight)
COC=C(Cn1nc(-c2cc(Cl)cc(Cl)c2)c(Br)c1C)C(=O)OC [Compound 32]	3 (herbicidal effect of not less than 50% by weight and less than 70% by weight)	3 (herbicidal effect of not less than 50% by weight and less than 70% by weight)	3 (herbicidal effect of not less than 50% by weight and less than 70% by weight)	0 (herbicidal effect of not less than 0% by weight and less than 10% by weight)	4 (herbicidal effect of not less than 70% by weight and less than 90% by weight)	4 (herbicidal effect of not less than 70% by weight and less than 90% by weight)	4 (herbicidal effect of not less than 70% by weight and less than 90% by weight)	4 (herbicidal effect of not less than 70% by weight and less than 90% by weight)	3 (herbicidal effect of not less than 50% by weight and less than 70% by weight)	0 (herbicidal effect of not less than 0% by weight and less than 10% by weight)	0 (herbicidal effect of not less than 0% by weight and less than 10% by weight)	0 (herbicidal effect of not less than 0% by weight and less than 10% by weight)	0 (herbicidal effect of not less than 0% by weight and less than 10% by weight)	4 (herbicidal effect of not less than 70% by weight and less than 90% by weight)	4 (herbicidal effect of not less than 70% by weight and less than 90% by weight)	4 (herbicidal effect of not less than 70% by weight and less than 90% by weight)	4 (herbicidal effect of not less than 70% by weight and less than 90% by weight)
COC=C(Cn1nc(-c2cc(Cl)ccc2Cl)c(Cl)c1C)C(=O)OC [Compound 22]	5 (herbicidal effect of not less than 90% by weight)	5 (herbicidal effect of not less than 90% by weight)	5 (herbicidal effect of not less than 90% by weight)	1 (herbicidal effect of not less than 10% by weight and less than 30% by weight)	5 (herbicidal effect of not less than 90% by weight)	5 (herbicidal effect of not less than 90% by weight)	5 (herbicidal effect of not less than 90% by weight)	4 (herbicidal effect of not less than 70% by weight and less than 90% by weight)	5 (herbicidal effect of not less than 90% by weight)	0 (herbicidal effect of not less than 0% by weight and less than 10% by weight)	0 (herbicidal effect of not less than 0% by weight and less than 10% by weight)	0 (herbicidal effect of not less than 0% by weight and less than 10% by weight)	0 (herbicidal effect of not less than 0% by weight and less than 10% by weight)	5 (herbicidal effect of not less than 90% by weight)	5 (herbicidal effect of not less than 90% by weight)	5 (herbicidal effect of not less than 90% by weight)	5 (herbicidal effect of not less than 90% by weight)
COC=C(Cn1nc(-c2ccccc2Cl)c(Br)c1C)C(=O)OC [Compound 27]	5 (herbicidal effect of not less than 90% by weight)	5 (herbicidal effect of not less than 90% by weight)	5 (herbicidal effect of not less than 90% by weight)	1 (herbicidal effect of not less than 10% by weight and less than 30% by weight)	5 (herbicidal effect of not less than 90% by weight)	5 (herbicidal effect of not less than 90% by weight)	5 (herbicidal effect of not less than 90% by weight)	4 (herbicidal effect of not less than 70% by weight and less than 90% by weight)	5 (herbicidal effect of not less than 90% by weight)	0 (herbicidal effect of not less than 0% by weight and less than 10% by weight)	0 (herbicidal effect of not less than 0% by weight and less than 10% by weight)	0 (herbicidal effect of not less than 0% by weight and less than 10% by weight)	0 (herbicidal effect of not less than 0% by weight and less than 10% by weight)	4 (herbicidal effect of not less than 70% by weight and less than 90% by weight)	5 (herbicidal effect of not less than 90% by weight)	5 (herbicidal effect of not less than 90% by weight)	4 (herbicidal effect of not less than 70% by weight and less than 90% by weight)
